# Data published in patent EP1585727B1, “INDOLES USEFUL IN THE TREATMENT OF ANDROGEN-RECEPTOR RELATED DISEASES” (priority 2002, dated 2004).
# Biological target: T1, human androgen receptor (Homo sapiens, UniProt P10275)
# T1 construct: expressed in transfected cells; host or cells: Chinese hamster ovary (CHO) cells, cell line CHO-AR-pMMTV-LUC 1G12-A5-CA
# T1 sequence (P10275 1-920): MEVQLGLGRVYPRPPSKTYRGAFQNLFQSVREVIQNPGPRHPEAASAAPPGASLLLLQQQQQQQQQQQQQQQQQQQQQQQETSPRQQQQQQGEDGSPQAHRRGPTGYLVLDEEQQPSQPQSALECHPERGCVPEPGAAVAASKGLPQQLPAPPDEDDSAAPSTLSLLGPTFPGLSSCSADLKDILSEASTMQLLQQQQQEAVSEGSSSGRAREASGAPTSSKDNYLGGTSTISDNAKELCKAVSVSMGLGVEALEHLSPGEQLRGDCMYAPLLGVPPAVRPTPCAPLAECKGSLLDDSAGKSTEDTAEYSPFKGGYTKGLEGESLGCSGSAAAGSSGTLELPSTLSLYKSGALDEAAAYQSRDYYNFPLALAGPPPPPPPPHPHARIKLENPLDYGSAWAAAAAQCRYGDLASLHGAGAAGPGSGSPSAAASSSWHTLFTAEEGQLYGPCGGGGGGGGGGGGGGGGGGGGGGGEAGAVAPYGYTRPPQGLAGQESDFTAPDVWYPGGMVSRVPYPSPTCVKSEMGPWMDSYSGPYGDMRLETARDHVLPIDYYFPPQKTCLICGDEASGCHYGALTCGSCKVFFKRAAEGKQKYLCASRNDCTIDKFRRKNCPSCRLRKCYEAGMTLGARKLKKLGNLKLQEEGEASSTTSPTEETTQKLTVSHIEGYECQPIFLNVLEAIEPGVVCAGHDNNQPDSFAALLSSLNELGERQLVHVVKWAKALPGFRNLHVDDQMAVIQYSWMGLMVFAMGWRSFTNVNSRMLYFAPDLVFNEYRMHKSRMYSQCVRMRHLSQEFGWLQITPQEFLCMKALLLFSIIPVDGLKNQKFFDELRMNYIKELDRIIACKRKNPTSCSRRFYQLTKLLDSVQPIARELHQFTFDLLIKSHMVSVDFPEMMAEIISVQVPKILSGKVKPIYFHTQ
# Test: Androgen receptor transactivation assay, androgenic activity in the presence of 0.1 µmol/l onapristone (CHO-AR-pMMTV-LUC cells; Table 5)
# Format: cell-based
# Settings: maximal intrinsic activity in the presence of 100 nM DHT set at 1.00
# Protocol: The androgenic activity (EC50, potency, and efficacy) of the compounds in Table 5 was determined in an in vitro bioassay of Chinese hamster ovary (CHO) cells stably transfected with the human androgen receptor expression plasmid and a reporter plasmid in which the MMTV promotor is linked to the luciferase reporter gene. The cell line CHO-AR-pMMTV-LUC 1G12-A5-CA is described in Schoonen et al. (J. Steroid Biochem. Molec. Biol. […]; 74: 213-222). The androgen receptor activity of compounds was determined in the presence of 0.1 µmol/l onapristone. The maximal efficacy in the presence of 100 nmol/l DHT was set as 100%. The potencies are expressed as percentage of DHT activity. Table 5 Androgen receptor activity
row,SMILES,ago efficacy
1,COc1ccc2c(Sc3ccccc3[N+](=O)[O-])cn(Cc3ccncc3)c2c1 [Compound 93],+ (between 0.50 and 0.80)
2,"COc1ccc2c(Sc3ccccc3[N+](=O)[O-])cn(Cc3cc(F)c(F)c(F)c3)c2c1 [Compound 94, 6-Methoxy-3-(2-nitro-phenylsulfanyl)-1-(3,4,5-trifluoro-benzyl)-1H indole]",++ (≥0.80)
3,"COc1ccc2c(Sc3ccccc3[N+](=O)[O-])cn(Cc3cc(F)cc(F)c3F)c2c1 [Compound 95, 6-Methoxy-3-(2-nitro-phenylsulfanyl)-1-(2,3,5-trifluoro-benzyl)-1H-indole]",++ (≥0.80)
4,"COc1ccc2c(Sc3ccccc3[N+](=O)[O-])cn(Cc3ccc(Cl)nc3)c2c1 [Compound 96, 1-(6-Chloro-pyridin-3-ylmethyl)-6-methoxy-3-(2-nitro-phenylsulfanyl)-1H-indole]",± (between 0.20 and 0.50)
5,"O=C(CF)Nc1ccc2c(Sc3ccccc3[N+](=O)[O-])cn(Cc3cc(F)cc(F)c3)c2c1 [Compound 97, N-[1-(3,5-Difluoro-benzyl)-3-(2-nitro-phenylsulfanyl)-1H-indol-6-yl]-2-fluoro-acetamide]",++ (≥0.80)

# Same assay, conditions: potency expressed as percentage of DHT activity
row,SMILES,ago potency
1,COc1ccc2c(Sc3ccccc3[N+](=O)[O-])cn(Cc3ccncc3)c2c1 [Compound 93],± (between 0.1 % and 1%)
2,"COc1ccc2c(Sc3ccccc3[N+](=O)[O-])cn(Cc3cc(F)c(F)c(F)c3)c2c1 [Compound 94, 6-Methoxy-3-(2-nitro-phenylsulfanyl)-1-(3,4,5-trifluoro-benzyl)-1H indole]",+ (between 1% and 5%)
3,"COc1ccc2c(Sc3ccccc3[N+](=O)[O-])cn(Cc3cc(F)cc(F)c3F)c2c1 [Compound 95, 6-Methoxy-3-(2-nitro-phenylsulfanyl)-1-(2,3,5-trifluoro-benzyl)-1H-indole]",± (between 0.1 % and 1%)
4,"COc1ccc2c(Sc3ccccc3[N+](=O)[O-])cn(Cc3ccc(Cl)nc3)c2c1 [Compound 96, 1-(6-Chloro-pyridin-3-ylmethyl)-6-methoxy-3-(2-nitro-phenylsulfanyl)-1H-indole]",± (between 0.1 % and 1%)
5,"O=C(CF)Nc1ccc2c(Sc3ccccc3[N+](=O)[O-])cn(Cc3cc(F)cc(F)c3)c2c1 [Compound 97, N-[1-(3,5-Difluoro-benzyl)-3-(2-nitro-phenylsulfanyl)-1H-indol-6-yl]-2-fluoro-acetamide]",+ (between 1% and 5%)

# Biological target: T1, human androgen receptor
# Test: Androgen receptor transactivation assay, antiandrogenic activity: inhibition of transactivation in the presence of 1 nM DHT (CHO-AR-pMMTV-LUC cells; Table 4)
# Format: cell-based
# Settings: antiandrogenic activity, in the presence of 1 nM DHT; read-out: ant EC50
# Protocol: Compounds were tested for their Androgen Receptor activity in a transactivation assay and in a binding assay.
# The (anti-)androgenic activity of test compounds (EC50 and intrinsic activity) was determined in an in vitro bioassay of Chinese hamster ovary (CHO) cells stably transfected with the human androgen receptor expression plasmid and a reporter plasmid in which the MMTV-promoter is linked to the luciferase reporter gene. The cell-line CHO-AR-pMMTV-LUC 1G12-AS-CA is described in Schoonen et al. (2000), Journal of Steroid Biochemistry and Molecular Biology 74(4):213-222. The antiandrogenic activity of a test compound was determined by the inhibition of the transactivation via the androgen receptor of the enzyme luciferase in the presence of 1 nM DHT (5 α-dihydrotestosterone, 17β-hydroxy-5α-androstan-3-one). Intrinsic activity of antiandrogenic activity was determined in the presence of the reference antiandrogen 2-Hydroxy-2-methyl-N-(4-nitro-3-trifluoromethyl-phenyl)-propionamide (Hydroxyflutamide), and set at 100%. For androgenic activity, maximal intrinsic activity in the presence of 100 nM DHT was set at 100%. Table 4 Androgen receptor activity
row,SMILES,EC50 [µM]
1,"O=[N+]([O-])c1ccccc1Sc1cn(Cc2cc(F)cc(F)c2)c2cc(O)ccc12 [Compound 61, 1-(3,5-Difluoro-benzyl)-3-(2-nitro-phenylsulfanyl)-1H-indol-6-ol]",> 10
2,COc1ccc2c(Sc3ccccc3[N+](=O)[O-])cn(Cc3c(C)noc3C)c2c1 [Compound 80],> 10

# Same assay, conditions: in the presence of 1 nM DHT; intrinsic activity relative to reference antiandrogen Hydroxyflutamide (set at 100%); read-out: ant efficacy
row,SMILES,Emax [%]
1,O=[N+]([O-])c1ccccc1Sc1cn(Cc2cc(F)cc(F)c2)c2ccc(F)cc12 [Compound 53],< 20
2,O=[N+]([O-])c1ccccc1Sc1cn(Cc2cc(F)cc(F)c2)c2cccc(Cl)c12 [Compound 54],< 20
3,Cc1cccc2c1c(Sc1ccccc1[N+](=O)[O-])cn2Cc1cc(F)cc(F)c1 [Compound 55],< 20
4,"Nc1ccc2c(Sc3ccccc3[N+](=O)[O-])cn(Cc3cc(F)cc(F)c3)c2c1 [Compound 57, 1-(3,5-Difluoro-benzyl)-3-(2-nitro-phenylsulfanyl)-1H-indol-6-ylamine]",< 20
5,"CC(=O)Nc1ccc2c(Sc3ccccc3[N+](=O)[O-])cn(Cc3cc(F)cc(F)c3)c2c1 [Compound 58, N-[1-(3,5-Difluoro-benzyl)-3-(2-nitro-phenylsulfanyl)-1H-indol-6-yl]-acetamide]",< 20
6,"O=C(Nc1ccc2c(Sc3ccccc3[N+](=O)[O-])cn(Cc3cc(F)cc(F)c3)c2c1)C(F)(F)F [Compound 59, N-[1-(3,5-Difluoro-benzyl)-3-(2-nitro-phenylsulfanyl)-1H-indol-6-yl]-2,2,2-trifluoroacetamide]",< 20
7,"O=[N+]([O-])c1ccccc1Sc1cn(Cc2cc(F)cc(F)c2)c2cc(O)ccc12 [Compound 61, 1-(3,5-Difluoro-benzyl)-3-(2-nitro-phenylsulfanyl)-1H-indol-6-ol]",< 20
8,"COc1ccc2c(S(=O)(=O)c3ccccc3[N+](=O)[O-])cn(Cc3cc(F)cc(F)c3)c2c1 [Compound 62, 1-(3,5-Difluoro-benzyl)-6-methoxy-3-(2-nitro-benzenesulfonyl)-1H-indole]",< 20
9,"COc1ccc2c(Sc3ccccc3[N+](=O)[O-])cn(Cc3cc(F)cc(F)c3)c2c1 [Compound 63, 1-(3,5-Difluoro-benzyl)-6-methoxy-3-(2-nitro-phenylsulfanyl)-1H-indole]",< 20
10,"COc1ccc2c([S+]([O-])c3ccccc3[N+](=O)[O-])cn(Cc3cc(F)cc(F)c3)c2c1 (stereo not shown) [Compound 64, 1-(3,5-Difluoro-benzyl)-6-methoxy-3-(2-nitro-benzenesulfinyl)-1H-indole]",50 to 80
11,"COc1ccc2c(Sc3ccccn3)cn(Cc3cc(F)cc(F)c3)c2c1 [Compound 65, 1-(3,5-Difluoro-benzyl)-6-methoxy-3-(pyridin-2-ylsulfanyl)-1H-indole]",< 20
12,COc1ccc2c(Sc3cccc[n+]3[O-])cn(Cc3cc(F)cc(F)c3)c2c1 [Compound 66],20 to 50
13,COc1ccc2c(Sc3ccccc3[N+](=O)[O-])cn(Cc3cccc(Cl)c3)c2c1 [Compound 67],< 20
14,COc1ccc2c(Sc3ccccc3[N+](=O)[O-])cn(Cc3cccc(C#N)c3)c2c1 [Compound 68],< 20
15,COc1ccc2c(Sc3ccccc3[N+](=O)[O-])cn(Cc3cc(F)cc(C(F)(F)F)c3)c2c1 [Compound 69],< 20
16,COc1ccc2c(Sc3ccccc3[N+](=O)[O-])cn(Cc3cc(F)ccc3C(F)(F)F)c2c1 [Compound 70],< 20
17,COc1ccc2c(Sc3ccccc3[N+](=O)[O-])cn(Cc3cccc(F)c3)c2c1 [Compound 71],< 20

row,SMILES,Emax [%]
1,COc1cccc(Cn2cc(Sc3ccccc3[N+](=O)[O-])c3ccc(OC)cc32)c1 [Compound 72],< 20
2,COc1ccc2c(Sc3ccccc3[N+](=O)[O-])cn(Cc3cccc(C)c3)c2c1 [Compound 73],< 20
3,COc1ccc2c(Sc3ccccc3[N+](=O)[O-])cn(Cc3cccnc3)c2c1 [Compound 75],< 20
4,COc1ccc2c(Sc3ccccc3[N+](=O)[O-])cn(Cc3ccc(Cl)c(C(F)(F)F)c3)c2c1 [Compound 76],< 20
5,COc1ccc2c(Sc3ccccc3[N+](=O)[O-])cn(Cc3cccc(OC(F)(F)F)c3)c2c1 [Compound 77],< 20
6,COc1ccc2c(Sc3ccccc3[N+](=O)[O-])cn(Cc3cccc(C(F)(F)F)c3)c2c1 [Compound 78],< 20
7,COc1ccc2c(Sc3ccccc3[N+](=O)[O-])cn(Cc3csc(C)n3)c2c1 [Compound 79],< 20
8,COc1ccc2c(Sc3ccccc3[N+](=O)[O-])cn(Cc3c(C)noc3C)c2c1 [Compound 80],20 to 50
9,COc1ccc2c(Sc3ccccc3[N+](=O)[O-])cn(Cc3ccc(Cl)cc3)c2c1 [Compound 81],50 to 80
10,COc1ccc2c(Sc3ccccc3[N+](=O)[O-])cn(Cc3ccc(C#N)cc3)c2c1 [Compound 82],< 20
11,COc1ccc2c(Sc3ccccc3[N+](=O)[O-])cn(Cc3ccc(F)cc3)c2c1 [Compound 83],< 20
12,COc1ccc(Cn2cc(Sc3ccccc3[N+](=O)[O-])c3ccc(OC)cc32)cc1 [Compound 84],> 80
13,COc1ccc2c(Sc3ccccc3[N+](=O)[O-])cn(Cc3ccc(C)cc3)c2c1 [Compound 85],20 to 50
14,COc1ccc2c(Sc3ccccc3[N+](=O)[O-])cn(Cc3cnc(Cl)s3)c2c1 [Compound 87],< 20
15,COc1ccc2c(Sc3ccccc3[N+](=O)[O-])cn(Cc3ccc(Cl)s3)c2c1 [Compound 88],< 20
16,O=[N+]([O-])c1ccccc1Sc1cn(Cc2ccccc2)c2ccccc12 [Compound 90],< 20
17,COc1ccc2c(c1)c(Sc1ccccc1[N+](=O)[O-])cn2Cc1ccccc1 [Compound 91],> 80

# Same assay, conditions: read-out: ant efficacy, in the presence of 1 nM DHT; intrinsic activity relative to reference antiandrogen Hydroxyflutamide (set at 100%)
row,SMILES,Emax [%]
1,O=[N+]([O-])c1ccc2c(Sc3ccccc3[N+](=O)[O-])cn(Cc3cc(F)cc(F)c3)c2c1 [Compound 60],< 20
2,COc1ccc2c(Sc3ccccc3[N+](=O)[O-])cn(Cc3cccc([N+](=O)[O-])c3)c2c1 [Compound 74],< 20
3,COc1ccc2c(Sc3ccccc3[N+](=O)[O-])cn(CC3CCCCC3)c2c1 [Compound 89],20 to 50
